Consider 5 compounds from patent US9937153B2, “Oral pharmaceutical formulation of omarigliptin” (Merck Sharp & Dohme Corp., priority 2013, dated 2018).

Series [1] in a line: Comparative salt stability of pharmaceutical formulations after 1 week. The format is physicochemical. To be noted: formulation as in Example 3. On the procedure:
Samples were made with 1% Citric Acid or Na2CO3 by first coating a mortar with mannitol. Omarigliptin was then triturated using the mortar and pestle with 0.1000 g mannitol then with 0.1000 g mannitol & 0.1000 g citric acid or Na2CO3 and then with equal amounts mannitol. The triturate was added to the remaining ingredients and blended initially with mortar and pestle and then transferred into a glass bottle and blended with a blender at medium speed for 15 mins. Magnesium stearate was passed through a 250 micron screen and the required quantity was dispensed and added to the powders in the bottle. The mixture was blended for 1 minute at medium speed. Tablets were compressed using a press having ¼″ normal concave punches at 100 mg unit weight:
Fumarate, phosphate and hydrochloride salts of omarigliptin were made and used in the manufacture of pharmaceutical formulations as described in Example 3. The pharmaceutical formulations containing the fumerate, phosphate and hydrochloride salts of omarigliptin as well as pharmaceutical formulations containing the free base were tested under various conditions for stability.

The nature of series [2]: Formulation work on chemical stability of omarigliptin. The format is physicochemical. The text has this: One concern with developing an oral pharmaceutical formulation of omarigliptin is the chemical stability of the compound. […] Also omarigliptin stability is critically sensitive to drug loading with lower drug loadings becoming increasingly unstable in any formulation drug product. […] This degradation process with respect to free amines is described in Robertson et al., Maillard's Reaction and its Impliations for Amine Drugs in the Pharmaceutical Industry, Digital Edition of American Pharmaceutical Review, Volume 15, Issue 3, April 2012.

As to `CS(=O)(=O)n1cc2c(n1)CN(C1COC(c3cc(F)ccc3F)C(N)C1)C2.Cl` (centres unmarked) [HCl], in series [1] (5° C./50% RH closed), the “% Area” value is reported as 98.69% and the “% LC” value was determined as 75.5%. In series [1] (50° C./75% RH/open), the “% Area” value stood at 95.3%, the “% LC” value was found to be 62.5% and the “Total Degs. (Area %)” value was determined as 3.6 Area %. In series [1] (50° C./closed), the “% Area” value is 97.6%, the “% LC” value was 71.8% and the “Total Degs. (Area %)” value amounted to 1.3 Area %.

Regarding `CS(=O)(=O)n1cc2c(n1)CN([C@H]1CO[C@H](c3cc(F)ccc3F)[C@@H](N)C1)C2.O=C(O)/C=C/C(=O)O` [Fumerate], in series [1] (5° C./50% RH closed), the “% Area” value was 95.9% and the “% LC” value is listed as 79.6%. Moreover, in series [1] (50° C./75% RH/open), the “% Area” value was 93.8%, the “% LC” value was found to be 69.5% and the “Total Degs. (Area %)” value is listed as 2.0 Area %. In series [1] (50° C./closed), the “% Area” value is on record as 94.3%, the “% LC” value turned out to be 75.9% and the “Total Degs. (Area %)” value is recorded as 1.6 Area %.

For `CS(=O)(=O)n1cc2c(n1)CN([C@H]1CO[C@H](c3cc(F)ccc3F)[C@@H](N)C1)C2` [omarigliptin, (2R,3S,5R)-2-(2,5-Difluorophenyl)-5-[2-(methylsulfonyl)-2,6-dihydropyrrolo[3,4-c]pyrazol-5(4H)-yl]tetrahydro-2H-pyran-3-amine], the sensitivity to oxidation entry in series [2] is “sensitive to oxidation”. The “sensitivity to acid and base catalyzed hydrolysis” value in series [2] (early formulation work) was “sensitive to acid and base catalyzed hydrolysis”. Further, the “sensitivity to Maillard degradation (browning)” value in series [2] (with excipients or other impurities that contain reducible sugar impurities) is “sensitive to Maillard degradation”.

As for `CS(=O)(=O)n1cc2c(n1)CN([C@H]1CO[C@H](c3cc(F)ccc3F)[C@@H](N)C1)C2` [Free Base I, (2R,3S,5R)-2-(2,5-Difluorophenyl)-5-[2-(methylsulfonyl)-2,6-dihydropyrrolo[3,4-c]pyrazol-5(4H)-yl]tetrahydro-2H-pyran-3-amine], in series [1] (5° C./50% RH closed), the “% Area” value turned out to be 98.8% and the “% LC” value is listed as 88.5%. For the same compound, in series [1] (50° C./75% RH/open), the “% Area” value came to 97.1%, the “% LC” value is listed as 82.0% and the “Total Degs. (Area %)” value worked out at 1.7 Area %. For the same compound, in series [1] (50° C./closed), the “% Area” value came to 97.9%, the “% LC” value turned out to be 85.9% and the “Total Degs. (Area %)” value worked out at 0.9 Area %.

For the compound Phosphate, in series [1] (5° C./50% RH closed), the “% Area” value is given as 96.8% and the “% LC” value stood at 76.5%. Further, in series [1] (50° C./75% RH/open), the “% Area” value is given as 92.0%, the “% LC” value stood at 54.4% and the “Total Degs. (Area %)” value is on record as 4.8 Area %. For the same compound, in series [1] (50° C./closed), the “% Area” value came out at 94.0%, the “% LC” value was determined as 70.8% and the “Total Degs. (Area %)” value was 2.9 Area %.
